# According to patent US6372466B1, “C-4 specific sulfotransferase” (Seikagaku Corporation, priority 1998, dated 2002):
# Entries after “also recorded” stand apart in the source; their conditions may differ.
# Key:
# Assay type in all cases: biochemical, rat
# [1] = system: G4ST; assay: G4ST enzymatic activity assay ([35S]PAPS sulfate transfer to chondroitin)
# Procedure: The activities of G4ST and C6ST were assayed in accordance with the method of Habuchi, O. et al. (Habuchi, O., Matsui, Y., Kotoya, Y., Aoyama, Y., Yasuda, Y., and Noda, M., (1993) J. Biol. Chem., 268, 21968-21974). The reaction mixture contained imidazole hydrochloride (2.5 μmol, pH 6.8), protamine chloride (1.25 μg), dithiothreitol (0.1 μmol), chondroitin (25 nmol as glucuronic acid, derived from squid skin, prepared by the method described in Habuchi, O. and Miyata, K. (1980) Biochim. Biophys. Acta 616, 208-217), [^35S]PAPS (50 pmol: about 5.0×10^5 cpm: prepared by the method of Delfert, D. M., et al. (Delfert, D. M., and Conrad, H. E. (1985) Anal. Biochem. 148, 303-310)) and an enzyme in a final volume of 50 μl.
# The above-mentioned reaction mixture was incubated at 37° C. for 20 minutes and immersed in a water bath kept at 100° C. for 1 minute to stop the enzymatic reaction. After the reaction was stopped, [^35S]-labeled chondroitin was isolated by desalting by gel chromatography using a Fast Desalting Column and precipitation with ethanol, and radioactivity was measured by the conventional manner.
# To distinguish the activities of C6ST and G4ST one from another, [^35S]-labeled chondroitin was digested with chondroitinase ACII and unsaturated disaccharides (ΔDi-4S (2-acetamide-2-deoxy-3-O-(β-D-gluco-4-enepyranosyluronic acid)-4-O-sulfo-D-galactose) and ΔDi-6S (2-acetamide-2-deoxy-3-O-(β-D-gluco-4-enepyranosyluronic acid-6-O-sulfo-D-galactose)) were separated by paper chromatography (filter paper: Toyo No. 51A and solvent: 1-butanol/acetic acid/NH3 (1 M) (volume ratio 2:3:1)), the separated unsaturated disaccharides were visualized by irradiation of ultraviolet rays, the regions containing the disaccharides were cut out, and then radioactivities thereof were counted.
# The amount of enzymatic activity required for transferring 1 pmol of a sulfate group for 1 minute under the conditions of 37° C. and pH 6.8 was defined as one unit as a unit of enzymatic activity.
# Also, in the above-mentioned assay method for enzymatic activity, pH of imidazole hydrochloride buffer in the reaction mixture was varied (pH range: 6.3 to 7.6) and in addition, the buffer was replaced by one of buffers having various pH ranges (0.05 M, acetate buffer: pH 4.2 to 5.4, MES buffer: pH 5.4 to 6.8, Tris-HCl buffer: pH 7.2 to 9.0), and G4ST activity was assayed at each pH range (FIG. 6B).
# In the above-mentioned assay method for enzymatic activity, the concentration of [^35S]PAPS in the reaction mixture was varied to measure the Km value of [^35S]PAPS as a sulfate group donor.
# [2] = system: G4ST; assay: Substrate specificity of G4ST (sulfate transfer to glycosaminoglycans); conditions: for transfer of a sulfate group by G4ST to the glycosaminoglycan as acceptor: 25 nmol as galactosamine or glucosamine, replacing chondroitin in the reaction mixture
# Procedure: According to the measurement method for enzymatic activity described above, the activity of G4ST of transferring a sulfate group to glycosaminoglycans other than chondroitin was measured. A reaction mixture used as a control of reaction was the reaction mixture described for the above-mentioned assay method for enzymatic activity (imidazole hydrochloride (2.5 μmol, pH 6.8), protamine chloride (1.25 μg), dithiothreitol (0.1 μmol), chondroitin (25 nmol as glucuronic acid), [^35S]PAPS (50 pmol: about 5.0×10^5 cpm), and an enzyme, total volume 50 μl) and the activity was measured by replacing the chondroitin contained in the above-mentioned reaction mixture as a control with (1) chondroitin sulfate A (derived from whale cartilage) (manufactured by Seikagaku Corp.), chondroitin sulfate C (derived from shark cartilage) (manufactured by Seikagaku Corp.), and chondroitin sulfate E (derived from squid cartilage) (prepared by the method described in Habuchi, O., Sugiura, K., Kawai, N. and Suzuki, S. (1977) J. Biol. Chem. 252, 4570-4576), (2) dermatan sulfate (derived from pig skin) (manufactured by Seikagaku Corp.), (3) desulfated dermatan sulfate (prepared by the method described by Nagasawa, et al. (Nagasawa, K., Inoue, Y., and Tokuyasu, T. (1995) J. Biochem. 86, 1323-1329)), (4) heparan sulfate (derived from bovine kidney) (manufactured by Seikagaku Corp.), (5) CDSNS-heparin (completely desulfated N-sulfated heparin: manufactured by Seikagaku Corp.), and (6) keratan sulfate (derived from bovine cornea) (manufactured by Seikagaku Corp.) ((1), (2) and (3) were each in an amount of 25 nmol as galactosamine, while (4), (5) and (6) were each in an amount of 25 nmol as glucosamine).
# To identify a sulfate group receptor, the purified G4ST was allowed to react with various glycosaminoglycans in the presence of protamine chloride in various concentrations (FIG. 7). In FIG. 7, closed circles indicate the results on chondroitin, open circles indicates the results on desulfated dermatan sulfate, closed triangles indicate the results on chondroitin sulfate A, open triangles indicates the results on chondroitin sulfate C, and closed square indicate the results on dermatan sulfate.
# Target sequence in this assay (P69478 101-352 limits assumed): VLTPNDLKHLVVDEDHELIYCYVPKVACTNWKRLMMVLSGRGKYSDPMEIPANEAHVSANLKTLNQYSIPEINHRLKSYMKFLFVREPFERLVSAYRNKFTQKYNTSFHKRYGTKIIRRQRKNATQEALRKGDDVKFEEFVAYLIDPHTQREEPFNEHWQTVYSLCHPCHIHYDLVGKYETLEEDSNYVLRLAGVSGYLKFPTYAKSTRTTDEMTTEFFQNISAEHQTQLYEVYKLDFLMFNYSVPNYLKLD
# [3] = system: G4ST; assay: Identification of the sulfate group-transferring site of G4ST (chondroitinase digestion, HPLC / Superdex 30); conditions: 35S-labeled by G4ST, digested with chondroitinase ACII, Partisil 10-SAX HPLC
# Procedure: To identify the sulfate group-transferring. site of chondroitin and desulfated dermatan sulfate, ^35S-labeled glycosaminoglycan obtained by sulfotransfer reaction by G4ST was digested with chondroitinase ACII (manufactured by Seikagaku Corp.) or chondroitinase ABC (manufactured by Seikagaku Corp.) and the digestion products were analyzed by HPLC (high performance liquid chromatography). ^35S-Labeling was performed under the same conditions as the above-mentioned assay method for enzymatic activity except that the amount of protamine chloride was increased to 10 μg. The unsaturated disaccharides obtained by the digestion of ^35S-labeled chondroitin and ^35S-labeled desulfated dermatan sulfate with chondroitinase ACII or chondroitinase ABC were isolated by HPLC using a Partisil 10-SAX column (4.5 mm×25 cm: manufactured by Whatman) equiberated with KH2PO4 (35 mM). The column was eluted by concentration gradient of KH2PO4 under the conditions of a flow rate of 1 ml/minute and a column temperature of 40° C. to recover 0.5 ml of fractions.
# Further, a Superdex 30 gel chromatography was performed using a digestion product obtained by digesting ^35S-labeled desulfated dermatan sulfate with chondroitinase ABC and chondroltinase ACII or chondroitinase ACII alone. […]
# Target sequence in this assay (P69478 101-352 limits assumed): as above
# [4] = system: G4ST; assay: G4ST enzymatic activity assay ([35S]PAPS sulfate transfer to chondroitin); conditions: protamine 0.25 mg/ml
# Target sequence in this assay (P69478 101-352 limits assumed): as above
# [5] = SH group-containing substance in the reaction mixture
Molecule,effect on G4ST activity ([1]; metal ion 5 mM),transfer of a sulfate group by G4ST to the glycosaminoglycan as acceptor [2],further results
O[C@H](CS)[C@H](O)CS (racemic) [dithiothreitol],–,–,"effect on G4ST activity [1, 5]: enhanced the activity of G4ST"
OCCS [2-mercaptoethanol],–,–,"effect on G4ST activity [1, 5]: enhanced the G4ST activity"
[Ba+2] [Ba^2+],activated; also recorded: enhanced,–,–
[Ca+2] [Ca^2+],activated; also recorded: most activated; also recorded: enhanced,–,–
[Co+2] [Co^2+],inhibit the activity of G4ST; also recorded: inhibited,–,–
[Fe+2] [Fe^2+],activated; also recorded: enhanced,–,–
[Mg+2] [Mg^2+],–,–,activating action on G4ST compared with other metal ions ([1]; concentration not printed for Mg2+): lowest in such an activating action
[Mn+2] [Mn^2+],activated; also recorded: enhanced,–,–
"Nc1ncnc2c1ncn2[C@@H]1O[C@H](COP(=O)(O)OS(=O)(=O)O)[C@@H](OP(=O)(O)O)[C@H]1O [PAPS, 3′-phosphoadenosine 5′-phosphosulfate]",–,–,"Km ([1]; [35S]PAPS as sulfate group donor, concentration varied): 0.27 µM"
[Sr+2] [Sr^2+],activated; also recorded: enhanced,–,–
N[C@@H](CCC(=O)N[C@@H](CS)C(=O)NCC(=O)O)C(=O)O [reduced glutathione],–,–,"effect on G4ST activity [1, 5]: enhanced the G4ST activity"
chondroitin,–,transfers a sulfate group,lowest protamine chloride concentration at which enhancement of activity was observed ([2]; protamine chloride in various concentrations): 0.25 mg/mL; radioactivity in eluted fractions of ΔDi-4S [3]: radioactivity was detected only in the eluted fractions of ΔDi-4S
chondroitin sulfate A,–,slight amount of activity; also recorded: transfers a sulfate group,–
chondroitin sulfate C,–,transfers a sulfate group,–
chondroitin sulfate E,–,transferred substantially no sulfate group,–
dermatan sulfate,–,transferred substantially no sulfate group,–
heparan sulfate,–,transferred substantially no sulfate group; also recorded: transfers substantially no sulfate group,–
keratan sulfate,–,transferred substantially no sulfate group,–
protamine,–,–,effect on G4ST activity [4]: activated; also recorded: enhanced
